{
  "source": "patent US20080103195A1",
  "about": "“COMPOUNDS FROM ANTRODIA CAMPHORATA FOR INHIBITING THE GROWTH OF CANCER TUMOR CELLS” (priority 2006, published 2008)",
  "key": {"[1]": {"tested_on": "LNCaP human prostate cancer cells", "assay": "In vitro assay of anti-tumor activity of prostate cancer (MTT assay)", "format": "cell-based", "conditions": "48 h", "description": "(§1) According to anti-tumor agents screening model of National Cancer Institute (NCI) of the United States National Institutes of Health, the assay is processed by adding 4,7-dimethoxy-5-methy-1,3-benzodioxole into the culture medium of LNCaP and DU-145 human prostate cancer tumor cells respectively.\n(§2) Doses of ethyl alcohol extract of Antrodia camphorata (the control group) were respectively 30, 10, 3, 1, and 0.3 μg/ml for each well and 4,7-dimethoxy-5-methy-1,3-benzodioxole (the experimental group) were respectively 30, 10, 3, 1, and 0.3 μg/ml for each well incubated at 37° C., 5% CO2 for 48 hours. 2.5 mg/ml MTT dye is added to each well without light and incubated for 4 hours, then treated with 100 μl lysis buffer to stop the reaction."}, "[2]": {"tested_on": "DU-145 human prostate cancer cells", "assay": "In vitro assay of anti-tumor activity of prostate cancer (MTT assay)", "format": "cell-based", "conditions": "DU-145, 48 h", "description": "as §1, §2"}, "[3]": {"tested_on": "Hep G2 human liver cancer cells", "assay": "In vitro assay of anti-tumor activity of liver cancer (MTT assay)", "format": "cell-based", "conditions": "HepG2, 48 h", "description": "(§3) According to anti-tumor agents screening model of National Cancer Institute (NCI) of the United States National Institutes of Health, the assay is processed by adding 4,7-dimethoxy-5-methy-1,3-benzodioxole into the culture medium of Hep 3B and Hep G2 human liver cancer tumor cells respectively.\nas §2, with “of Antrodia camphorate (the control” for “of Antrodia camphorata (the control”, “3, 1, 0.3, 0.1, and 0.03” for “3, 1, and 0.3”, “0.1, and 0.03 μg/ml for” for “1, and 0.3 μg/ml for”"}, "[4]": {"tested_on": "Hep 3B human liver cancer cells", "assay": "In vitro assay of anti-tumor activity of liver cancer (MTT assay)", "format": "cell-based", "conditions": "Hep3B, 48 h", "description": "as §3\nas §2, with “of Antrodia camphorate (the control” for “of Antrodia camphorata (the control”, “3, 1, 0.3, 0.1, and 0.03” for “3, 1, and 0.3”, “0.1, and 0.03 μg/ml for” for “1, and 0.3 μg/ml for”"}, "[5]": {"tested_on": "LNCaP human prostate cancer cells", "assay": "In vitro activity assay of adjuvant treatment of prostate cancer tumor cells using Taxol (MTT assay)", "format": "cell-based", "description": "(§4) Doses of 4,7-dimethoxy-5-methy-1,3-benzodioxole were 30, 10, 3, 1, 0.3, 0.1, and 0.03 μg/ml (the experimental group) and 0 μg/ml of 4,7-dimethoxy-5-methy-1,3-benzodioxole (the control group) for each well incubated at 37° C., 5% CO2 for 48 hours. 2.5 mg/ml MTT dye is added to each well without light and incubated for 4 hours, then treated with 100 μl lysis buffer to stop the reaction."}, "[6]": {"tested_on": "MCF-7 human breast cancer cells", "assay": "In vitro assay of anti-tumor activity of breast cancer (MTT assay)", "format": "cell-based", "conditions": "MCF7, 48 h", "source_text": "(§5) According to anti-tumor agents screening model of National Cancer Institute (NCI) of the United States National Institutes of Health, the assay is processed by adding 4,7-dimethoxy-5-methy-1,3-benzodioxole into the culture medium of MCF-7 human tumor cells and MDA-MB-231 human tumor cells respectively. The assay of tumor cell viability can be evaluated by using the conventional MTT assay, and MCF-7 and MDA-MB-231 are human breast cancer tumor cell lines.\n(§6) MTT assay is a conventional assay used to analyze the cell proliferation, percentage of viable cells, and cytotoxicity. MTT (3-(4,5-dimethylthiazole-2-yl)-2,5-diphenyl tetrazolium bromide) is a yellow dye, and is metabolized only in living cells by the mitochondrial succinate-tetrazolium reductase system to produce blue violet insoluble formazan products, thereby providing a measure of the number of viable cells upon generation of formazan products in viable cells.\nas §2, with “3, 1, 0.3, 0.1, and 0.03” for “3, 1, and 0.3”, “0.1, and 0.03 μg/ml for” for “1, and 0.3 μg/ml for”"}, "[7]": {"tested_on": "MDA-MB-231 human breast cancer cells", "assay": "In vitro assay of anti-tumor activity of breast cancer (MTT assay)", "format": "cell-based", "conditions": "MDA-MB-231, 48 h", "source_text": "as §5, §6\nas §2, with “3, 1, 0.3, 0.1, and 0.03” for “3, 1, and 0.3”, “0.1, and 0.03 μg/ml for” for “1, and 0.3 μg/ml for”"}, "[8]": {"tested_on": "Hep 3B human liver cancer cells", "conditions": "0.0043 μg/ml Lovastatin alone (control group)", "method": "(§7) First, Hep 3B human liver cancer cells and Hep G2 human liver cancer cells were respectively cultured in culture medium supplemented with fetal bovine serum for 24 hours. The proliferative cells were washed with PBS once, and treated with one-fold trypsin/EDTA solution. After centrifuged at 1,200 rpm for 5 min, the supernatant was removed and the cell pellet was transferred to new tubes and treated with 10 ml medium to suspend the cells again. Before the assay, the Hep 3B cell line was treated with 0.0043 μg/ml Lovastatin for 72 hours and the Hep G2 cell line was treated with 0.0017 μg/ml Taxol for 72 hours, and then plated in 96 well microplates. Doses of 4,7-dimethoxy-5-methy-1,3-benzodioxole were 30, 10, 3, 1, 0.3, 0.1, and 0.03 μg/ml (the experimental group) and 0 μg/ml of 4,7-dimethoxy-5-methy-1,3-benzodioxole (the control group) for each well incubated at 37° C., 5% CO2 for 48 hours. 2.5 mg/ml MTT dye is added to each well without light and incubated for 4 hours, then treated with 100 μl lysis buffer to stop the reaction. Subsequently, absorption was measured on an enzyme immunoassay analyzer at 570 nm for the measurement of viable cell number. The concentration of the drug measured at 50% of the cell death (i.e. IC50 value) was determined and calculated."}, "[9]": {"tested_on": "Hep G2 human liver cancer cells", "conditions": "Hep G2, 0.0017 μg/ml Taxol alone (control group)", "method": "as §7"}, "[10]": {"tested_on": "DU-145 human prostate cancer cells", "assay": "In vitro activity assay of adjuvant treatment of prostate cancer tumor cells using Taxol (MTT assay)", "format": "cell-based", "conditions": "DU-145, 0.0043 μg/ml Taxol alone (control group)", "description": "as §4"}, "[11]": {"tested_on": "MCF-7 human breast cancer cells", "assay": "In vitro activity assay of adjuvant treatment of breast cancer tumor cells using Taxol (MTT assay)", "format": "cell-based", "conditions": "MCF-7, 0.0017 μg/ml Taxol alone (control group, 0 μg/ml benzodioxole)", "description": "as §4"}, "[12]": {"tested_on": "MDA-MB-231 human breast cancer cells", "assay": "In vitro activity assay of adjuvant treatment of breast cancer tumor cells using Taxol (MTT assay)", "format": "cell-based", "conditions": "MDA-MB-231, 0.0017 μg/ml Taxol alone (control group, 0 μg/ml benzodioxole)", "description": "as §4"}},
  "data": [
    {"smiles": "COc1cc(C)c(OC)c2c1OCO2", "note": "[4,7-dimethoxy-5-methy-1,3-benzodioxole]", "values": [
      {"measurement": "IC50", "setting": "[1]", "result": 4.46, "unit": "µg/mL"},
      {"measurement": "IC50", "setting": "[2]", "result": 2.21, "unit": "µg/mL"},
      {"measurement": "IC50", "setting": "[3]", "result": 2.46, "unit": "µg/mL"},
      {"measurement": "IC50", "setting": "[4]", "result": 0.016, "unit": "µg/mL"},
      {"measurement": "IC50", "setting": "[5]; Homo sapiens", "result": 1.16, "unit": "µg/mL"},
      {"measurement": "IC50", "setting": "[6]", "result": 1.72, "unit": "µg/mL"},
      {"measurement": "IC50", "setting": "[7]", "result": 0.992, "unit": "µg/mL"}
    ]},
    {"smiles": "CC[C@H](C)C(=O)O[C@H]1C[C@@H](C)C=C2C=C[C@H](C)[C@H](CC[C@@H]3C[C@@H](O)CC(=O)O3)[C@H]21", "note": "[Lovastatin]", "values": [
      {"measurement": "The ratio of viable cells (%)", "setting": "[8]", "result": "69 ± 1", "unit": "%"}
    ]},
    {"smiles": "CC(=O)O[C@H]1C(=O)[C@@]2(C)[C@H]([C@H](OC(=O)c3ccccc3)[C@]3(O)C[C@H](OC(=O)[C@H](O)[C@@H](NC(=O)c4ccccc4)c4ccccc4)C(C)=C1C3(C)C)[C@]1(OC(C)=O)CO[C@@H]1C[C@@H]2O", "note": "[Taxol]", "values": [
      {"measurement": "The ratio of viable cells (%)", "setting": "[9]", "result": "86 ± 1", "unit": "%"},
      {"measurement": "The ratio of viable cells (%)", "setting": "[5]; 0.0017 μg/ml Taxol alone (control group)", "result": "55 ± 1", "unit": "%"},
      {"measurement": "The ratio of viable cells (%)", "setting": "[10]", "result": "71 ± 1", "unit": "%"},
      {"measurement": "The ratio of viable cells (%)", "setting": "[11]", "result": "69 ± 1", "unit": "%"},
      {"measurement": "The ratio of viable cells (%)", "setting": "[12]", "result": "86 ± 1", "unit": "%"}
    ]}
  ]
}
